Laboratory results from patent US5602141A, “Camptothecin derivatives and process for their preparation” (Pharmacia & Upjohn S.P.A., priority 1994, dated 1997).

What was measured:
L1210 murine leukemia = assay: Method (b): antitumor (antileukemic) activity, L1210 murine leukemia implanted ip into CD2F1 mice, median survival time; format: in vivo; settings: 24 h after tumor cells implant (day 1)
Experimental: Method (b): Evaluation of Antitumor Activity
L1210 murine leukemia was maintained in DBA2 mice by weekly ip transplants of 10^5 cells/mouse. For assaying the antileukemic activity, […] were implanted ip into CD2F1 mice; graded doses of the compounds under evaluation were administered ip 24 h after tumor cells implant on day 1 controls receiving vehicle alone.
The activity of the drugs was determined evaluating the median survival time (MST) of each group of mice.
The obtained results, expressed as % T/C, are reported on Table 3 below.

[1] = tested on: L1210 murine leukemia cells; assay: Method (a): cytotoxic activity on L1210 murine leukemia cells, 48 h exposure, Coulter Counter; format: cell-based; settings: Mus musculus, 48 h at 37° C., mean of 3 different experiments, read-out: IC50 (dose causing 50% inhibition of cell growth relative to untreated controls)
Experimental: Method (a): Evaluation of Cytotoxic Activity
L1210 murine leukemia cells were grown in vitro as a stationary suspension in RPMI 1640 medium supplemented with 10% fetal calf serum, 2 mM L-glutamine, 10 μM B-mercaptoethanol, 100 UI/ml penicillin and 100 μg streptomycin. For assaying the cytotoxic activity, exponentialily growing cells were seeded at the concentration of 1×10^5 cells/ml and exposed to graded doses of the compounds under evaluation for 48 h at 37° C. in an humidified atmosphere of 5% CO2. The number of surviving cells was determined with a Coulter Counter; results are expressed as IC50 (dose causing 50% inhibition of cell growth in treated cultures relative to untreated controls after 48 h treatment).
In this assay, 9-(iminomethyl-amino)-camptothecin (internal code FCE 28536) and 9-(dimethylamino-methyleneamino)-camptothecin (internal code FCE 29006) were tested and the obtained results, which represent the mean of 3 different experiments, are reported on Table 2 below.

[2] = Slichenmyer et al. 1993; cited from earlier work
Topoisomerase I = settings: Wani et al. 1987; Hsiang et al. 1989; cited from earlier work

Row | Compound | % T/C (MST treated mice/MST control mice × 100) (L1210 murine leukemia; 5 mg/kg ip) | % T/C (MST treated mice/MST control mice × 100) (L1210 murine leukemia; 10 mg/kg ip) [%] | IC50 [1] [nM] | solubility in aqueous solutions [2] | antitumor activity by the inhibition of Topoisomerase I (Topoisomerase I) | % T/C (MST treated mice/MST control mice × 100) (L1210 murine leukemia; 15 mg/kg ip) [%]
1 | CC[C@@]1(O)C(=O)OCc2c1cc1n(c2=O)Cc2cc3c(NC=N)cccc3nc2-1 [FCE 28536, 9-(iminomethyl-amino)-camptothecin] | 150-163% | 188 | 82 |  |  | 
2 | CC[C@@]1(O)C(=O)OCc2c1cc1n(c2=O)Cc2cc3ccccc3nc2-1 [Camptothecin, camptothecin] |  |  |  | low solubility in aqueous solutions | potent antitumor activity by the inhibition of Topoisomerase I | 
3 | CC[C@@]1(O)C(=O)OCc2c1cc1n(c2=O)Cc2cc3c(N=CN(C)C)cccc3nc2-1 [FCE 29006, 9-(dimethylamino-methyleneamino)-camptothecin] | 150% | 163 | 120 |  |  | 175
4 | CC[C@@]1(O)C(=O)OCc2c1cc1n(c2=O)Cc2cc3c(N)cccc3nc2-1 [9-amino camptothecin] |  |  |  | low solubility in aqueous solutions | potent antitumor activity by the inhibition of Topoisomerase I | 
